The source of these data is patent US11185593B2, “Alkylating agent for alkylating target with driver oncogene mutation” (Chiba Prefecture, priority 2013, dated 2021).

The subject of one series is LS180 cells. Description: Cytotoxicity test, WST-8 (cell counting kit-8), 48 hours. As to conditions: LS180 cells. The format is cell-based, human. As for the experimental part: Using LS180 colon cell line, the cells were seeded in each well of a 96-well microplate, resulting in a cell density of 3000 to 5000 cells/well, and they were then cultured overnight. On the following day, KR12 recognizing a codon 12 mutation, WT recognizing wild-type KRAS, and C12-Dp having the same structure as that of KR12, to which an alkylating agent had not been added, were each added to the cultured cells in concentrations of 1 nM, 10 nM, 30 nM, 100 nM, 300 nM, and 1 μM, and were then treated for 48 hours. Thereafter, a WST-8 reagent was added to each well, using cell counting kit-8 (DOJINDO), and the obtained mixture was then reacted for 2 hours. After that, the number of cells was counted at a wavelength of 450 nm according to a colorimetric analysis method using a microplate reader. The method of counting the number of cells comprises: 1) obtaining the mean value of the medium alone, 2) subtracting the mean value of the medium from each well, 3) obtaining the mean value of DMSO, 4) dividing the medium-subtracted value by the mean value of DMSO and then multiplying by 100, 5) obtaining the mean value of each treatment group and a standard deviation, and then preparing a graph. The calculation formula of IC50 is the following: IC50=10 (LOG (A/B)×(50−C)/(D−C)+LOG (B)), wherein A: a higher concentration of two concentrations sandwiching 50%, B: a lower concentration of two concentrations sandwiching 50%, C: inhibitory percentage at B, and D: inhibitory percentage at A.
Using colon cancer and pancreatic cancer cell lines, the cells were seeded in each well of a 96-well microplate, resulting in a cell density of 3000 to 5000 cells/well, and they were then cultured overnight. On the following day, the cells of each type were treated with KR12 recognizing a codon 12 mutation in concentrations of 1 nM, 10 nM, 30 nM, 100 nM, 300 nM, and 1 μM for 48 hours. Thereafter, a WST-8 reagent was added to each well, using cell counting kit-8, and the obtained mixture was then reacted for 2 hours. After that, the number of cells was counted at a wavelength of 450 nm according to a colorimetric analysis method using a microplate reader. The method of counting the number of cells comprises: 1) obtaining the mean value of the medium alone, 2) subtracting the mean value of the medium from each well, 3) obtaining the mean value of DMSO, 4) dividing the medium-subtracted value by the mean value of DMSO and then multiplying by 100, 5) obtaining the mean value of each treatment group and a standard deviation, and then preparing a graph. […]
(In general: Formazan colour is commonly taken as a measure of viable cells.)

Another series deals with MCF7 cells. The series is described as follows: Cytotoxicity test, Cell Counting Kit-8, 72 hours. Type of series: cell-based. As to conditions: Homo sapiens, MCF7, breast cancer, PIK3CA E545K, FIG. 27A. As for the experimental part: (§1) The experiment was carried out in the same manner as that in the case of using KR12. The cells used in the experiment were MCF7 cells and MDA-MB-231 cells. These cells were cultured in a DMEM, 10% FBS and 1% Pen/St medium, and in an RPMI1640, 10% FBS and 1% Pen/St medium, respectively. The cells of each type were seeded in each well of a 96-well plate at a cell density of 1000 cells/50 μl/well, and were then cultured under conditions of 37° C., 5% CO2, and saturated humidity for 24 hours. Thereafter, a reagent was diluted with a medium (final concentration: 1, 3, 10, 30, and 100 nM), and the diluted reagent was then added to the cultured cells in an amount of 50 μl/well, and the obtained mixture was then blended. The thus obtained mixture was cultured again under conditions of 37° C., 5% CO2, and saturated humidity for 72 hours. Thereafter, Cell Counting Kit-8 (DOJINDO) was added to the obtained culture in an amount of 10 μl/well, and the thus obtained mixture was blended and was then cultured under conditions of 37° C., 5% CO2, and saturated humidity for 2 hours. The absorbance was measured using Microplate Reader MTP-310 Lab (COLONA ELECTORIC), and the IC50 value was then calculated.

The next series concerns MDA-MB-231 cells. Description: Cytotoxicity test, Cell Counting Kit-8, 72 hours. The format is cell-based. Particulars: Homo sapiens, MDA-MB-231, breast cancer. The protocol:
as §1, with “Kelly cells, SK-N-SH cells, IMR-32 cells, SK-N-AS cells,” for “MCF7 cells”, “Thereafter, Cell Counting Kit-8 (DOJINDO) was added to the obtained culture in an amount of 10 μl/well, and the thus obtained mixture was blended and was then cultured under conditions of 37° C., 5% CO2, and saturated humidity for 2 hours.” left out
The experiment was carried out in the same manner as that in the case of using KR12. […] The absorbance was measured using Microplate Reader MTP-310 Lab (COLONA ELECTORIC), and the IC50 value was then calculated.

Another series has as its system IMR-32 cells. Description: Cytotoxicity test, Cell Counting Kit-8, 72 hours. Type of series: cell-based. As to conditions: Homo sapiens. As for the experimental part:
as §1, with “Kelly cells, SK-N-SH cells, IMR-32 cells, SK-N-AS cells,” for “MCF7 cells”
as §1, with “IMR-32” for “MCF7”, “TGW” for “MDA-MB-231”

A further series has as its system TGW cells. The series is described as follows: Cytotoxicity test, Cell Counting Kit-8, 72 hours. The format is cell-based. As to conditions: TGW cells, 1 to 100 nM, FIG. 33. The protocol:
as §1, with “IMR-32” for “MCF7”, “TGW” for “MDA-MB-231”

Series [1] can be described thus: Body weight and health condition of treated nude mice. Type of series: in vivo. Particulars: nude mice with SW480 cells; FIG. 15; seco CBI 8.4 mmol. The protocol: The below-mentioned 3 types of PBS solutions containing each type of cells were subcutaneously transplanted into the femurs of nude mice (i.e., HT29 into 7 mice, LS180 into 7 mice, and SW480 into 6 mice), and thereafter, at a time point in which a tumor adhered to the living body of each mouse and the tumor volume became approximately 100 mm^3, a drug was prepared with a composition of 3.4 mmol KR12 (1.36 mM KR12 dissolved in 2.5 μL of DMSO and 197.5 μL of PBS), or of a DMSO/PBS control (2.5 μL of DMSO and 197.5 μL of PBS). The prepared drug was subjected to sonication for 10 minutes, and 200 μL of the drug was administered to each mouse via the caudal vein thereof. The body weight and the tumor size were measured once three days, and the size of the tumor was measured by the method of 0.52×L×W×D(1/6×π×L×W×D).
Using, as controls, PIP-indole-seco-CBI (KR13) not recognizing a codon 12 mutation and 8.4 mmol seco CBI (3.36 mM CBI dissolved in 2.5 μL of DMSO and 197.5 μL of PBS), instead of the DMSO/PBS control, an experiment was carried out by the same method as that of the above section 11.

The subject of the next series is SK-N-SH cells. The series is described as follows: Cytotoxicity test, Cell Counting Kit-8, 72 hours. Type of series: cell-based. As to conditions: Homo sapiens, ALK F1174L neuroblastoma. As for the experimental part: as §1, with “Kelly cells, SK-N-SH cells, IMR-32 cells, SK-N-AS cells,” for “MCF7 cells”
The next series concerns SK-N-AS cells. Description: Cytotoxicity test, Cell Counting Kit-8, 72 hours. Type of series: cell-based. Particulars: Homo sapiens, wild-type ALK neuroblastoma. As for the experimental part: as §1, with “Kelly cells, SK-N-SH cells, IMR-32 cells, SK-N-AS cells,” for “MCF7 cells”
For another series, the system named is Kelly cells. The series is described as follows: Cytotoxicity test, Cell Counting Kit-8, 72 hours. The format is cell-based. As to conditions: ALK F1174L neuroblastoma. As for the experimental part:
as §1, with “Kelly cells, SK-N-SH cells, IMR-32 cells, SK-N-AS cells,” for “MCF7 cells”

Where only a bound is given, the exact number is not on record here.

Take `CC(=O)Nc1cn(C)c(C(=O)Nc2cc(C(=O)NCCC(=O)Nc3cn(C)c(C(=O)Nc4cn(C)c(C(=O)Nc5cc(C(=O)Nc6cn(C)c(C(=O)NCCCC(=O)Nc7cc(C(=O)Nc8cn(C)c(C(=O)NCCC(=O)Nc9cc(C(=O)Nc%10cc(C(=O)Nc%11ccc%12[nH]c(C(=O)NCCC(=O)N(C)C)cc%12c%11)n(C)c%10)n(C)c9)n8)n(C)c7)n6)n(C)c5)n4)n3)n(C)c2)n1` [C12-Dp]: the “suppression of the cell growth” value with LS180 cells (1 nM to 1 μM, FIG. 8) was “suppression of the cell growth was not observed”.
The term IC50 denotes the point on the concentration scale where inhibition reaches its midpoint. On to `CC(=O)Nc1cn(C)c(C(=O)Nc2cn(C)c(C(=O)NCCC(=O)Nc3cn(C)c(C(=O)Nc4cn(C)c(C(=O)Nc5cc(C(=O)Nc6cn(C)c(C(=O)NCCCC(=O)Nc7cc(C(=O)Nc8cn(C)c(C(=O)NCCC(=O)Nc9cc(C(=O)Nc%10cc(C(=O)Nc%11ccc%12[nH]c(C(=O)N%13CC(CCl)c%14c%13cc(O)c%13ccccc%14%13)cc%12c%11)n(C)c%10)n(C)c9)n8)n(C)c7)n6)n(C)c5)n4)n3)n2)n1` (stereo not shown) [WT], for which the half-inhibitory concentration (IC50) in the series on LS180 cells (Homo sapiens, WST-8, FIG. 8, read-out: IC50) worked out at 193 nM.
In the series on MCF7 cells, `CC(=O)Nc1cc(C(=O)Nc2cc(C(=O)Nc3cn(C)c(C(=O)NCCC(=O)Nc4cc(C(=O)Nc5cn(C)c(C(=O)Nc6cn(C)c(C(=O)NCCCC(=O)Nc7cc(C(=O)Nc8cc(C(=O)NCCC(=O)Nc9cn(C)c(C(=O)Nc%10cc(C(=O)Nc%11ccc%12[nH]c(C(=O)N%13CC(CCl)c%14c%13cc(O)c%13ccccc%14%13)cc%12c%11)n(C)c%10)n9)n(C)c8)n(C)c7)n6)n5)n(C)c4)n3)n(C)c2)n(C)c1` (stereo not shown) [P3A-E5K-2] returned an IC50 greater than 100 nM.
Take `CC(=O)Nc1cc(C(=O)Nc2cc(C(=O)Nc3cn(C)c(C(=O)Nc4cc(C(=O)NCCC(=O)Nc5cn(C)c(C(=O)Nc6cn(C)c(C(=O)NCCCC(=O)Nc7cc(C(=O)Nc8cc(C(=O)NCCC(=O)Nc9cn(C)c(C(=O)Nc%10cc(C(=O)Nc%11ccc%12[nH]c(C(=O)N%13CC(CCl)c%14c%13cc(O)c%13ccccc%14%13)cc%12c%11)n(C)c%10)n9)n(C)c8)n(C)c7)n6)n5)n(C)c4)n3)n(C)c2)n(C)c1` (stereo not shown) [P3A-E5K-1]: the IC50 in the series on MDA-MB-231 cells (wild-type PIK3CA gene, FIG. 27B) was greater than 100 nM; with MCF7 cells it was 53.8 nM.
Take `CC(=O)Nc1cc(C(=O)Nc2cn(C)c(C(=O)Nc3cc(C(=O)NCCC(=O)Nc4cn(C)c(C(=O)Nc5cc(C(=O)NCCCC(=O)Nc6cc(C(=O)Nc7cc(C(=O)NCCC(=O)Nc8cc(C(=O)Nc9ccc%10[nH]c(C(=O)N%11CC(CCl)c%12c%11cc(O)c%11ccccc%12%11)cc%10c9)n(C)c8)n(C)c7)n(C)c6)n(C)c5)n4)n(C)c3)n2)n(C)c1` (stereo not shown) [MYCNA2]: the IC50 with IMR-32 cells (IMR-32 cells, 1 to 100 nM, FIG. 33) worked out at 12.1 nM; in the series on TGW cells, 11.2 nM.
Regarding `Oc1cc2c(c3ccccc13)C(CCl)CN2` (stereo not shown) [seco-CBI, 1-chloromethyl-5-hydroxy-1,2-dihydro-3H-benzo[e]indole], in series [1], the “tendency of body weight reduction” value is “the tendency of body weight reduction, which was observed”.
Regarding `CC(=O)Nc1cc(C(=O)Nc2cc(C(=O)Nc3cc(C(=O)Nc4cc(C(=O)NCCC(=O)Nc5cc(C(=O)Nc6cc(C(=O)Nc7cc(C(=O)NCCCC(=O)Nc8cn(C)c(C(=O)Nc9cn(C)c(C(=O)NCCC(=O)Nc%10cn(C)c(C(=O)Nc%11cn(C)c(C(=O)Nc%12cc(C(=O)Nc%13ccc%14[nH]c(C(=O)N%15CC(CCl)c%16c%15cc(O)c%15ccccc%16%15)cc%14c%13)n(C)c%12)n%11)n%10)n9)n8)n(C)c7)n(C)c6)n(C)c5)n(C)c4)n(C)c3)n(C)c2)n(C)c1` (stereo not shown) [ALK-FL-1], the concentration for half-maximal inhibition (IC50) came to 7.5 nM with MDA-MB-231 cells (wild-type ALK gene); 0.46 nM in the series on IMR-32 cells (IMR-32, IMR32, wild-type ALK neuroblastoma); 0.13 nM in the series on SK-N-SH cells; 2.6 nM with SK-N-AS cells; 0.09 nM with Kelly cells.
